The results in this text go back to patent US20260258000A1, “THYMIDYLATE SYNTHASE INHIBITORS AND USES THEREOF” (University of Florida Research Foundation, Incorporated, priority 2021, published 2026).

This data set concerns Luc-PANC-1 xenograft tumors. Put plainly: Luc-PANC-1 subcutaneous xenograft tumor model. The settings on record: for median survival: control 54 days. The data set is classed as in vivo, NSG mice. How it is done: Luc-PANC-1 (5×106) and Luc-CM (0.5×106) cells were resuspended in 200 ul of PBS and injected subcutaneously (SQ) or intraperitonially (IP) to 6-8-week-old NSG mice respectively. Tumor bearing mice were imaged using Xenogen IVIS® Lumina Bioluminescence Imaging System (Perkin Elmer) every week after cell injection. At 4 weeks, animals were randomized based on slope of luciferase signal and treatment was initiated. […] For all animals body weight was recorded weekly and Luc-PANC-1 tumor volume was measured weekly with a caliper. For scheduled sacrifice experiments, animals were euthanized after 4 weeks of treatment. […] Harvested tumors were excised and weighted, and fixed in alcoholic formalin (67.5% Ethanol, 10% Formaldehyde 37%, 22.5% water) for pathology analysis. Tumor volume was calculated as [volume=0.52 (length×width2)].
From this stock, the exact volume needed for daily in vivo delivery was then formulated into 95% corn oil (Mazola) at 2 different concentrations: 1.25 mg/mi (formulation 1) and 3.125 mg/ml (formulation 2). To determine the volume of solution administered to the mice, 200 μl (maximum volume to be delivered in mice via IP or oral gavage) was divided by 25 g of mouse body weight. Therefore, 8 μl of formulation 1 or 2 multiplied by the weight of the mice were used to reach a dose of 10 or 25 mg/kg of body weight, respectively.
Prior to bioluminescence imaging the region where tumors were located was shaved. Mice were then anesthetized with 2.5% isoflurane in 02 then administered the D-luciferin substrate (150 mg/kg in PBS) by IP injection. Following the injection of the D-luciferin substrate mice were imaged using the Xenogen IVIS® Lumina Bioluminescence Imaging System (Perkin Elmer). The peak of luciferase photon flux was recorded 6 minutes after injection of the D-luciferin substrate. The total photon flux was analyzed and restricted to tumor ROI (region of interest) using Living Image v2.60.1 software (Imaging Systems).

With `CCc1nc(N)nc(N)c1-c1ccc(N(C)Cc2ccccc2)c([N+](=O)[O-])c1` [Compound 19-S], the median survival by setting is: (10 mg/kg PO until survival endpoint) 68 days; (25 mg/kg PO until survival endpoint) 84 days. The body weight result by setting is: (25 mg/kg IP, 4 cycles, vs vehicle) “no significant deviations”; (10 or 25 mg/kg PO, survival study, vs vehicle) “no significant differences”. Also, under “25 mg/kg IP, 4 cycles, p=0.0029 vs vehicle”, the final tumor mass result is recorded as “significantly reduced”. Also, the “tumor progression (bioluminescence photon flux, tumor volume)” value (25 mg/kg IP, 5 days on/2 days rest, 4 cycles, p=0.0023 flux, p<0.0001 volume vs vehicle) is “inhibited tumor progression”. In addition, the “adverse effects / body weight” value (25 mg/kg oral gavage, 4 cycles) is reported as “did not show adverse effects or declines in body weight”. For the same compound, for the setting “25 mg/kg oral gavage, 4 cycles (FIGS. 7A-7H)”, the “tumor progression (photon flux, tumor volume, excised tumor mass)” value is on record as “inhibited tumor progression”. For the same compound, the “survival compared to vehicle control” value (10 or 25 mg/kg PO (either dose), Kaplan-Meier) was “statistically significant (p=0.0027) prolonged survival”. Moreover, for the setting “10 or 25 mg/kg PO, at 6 weeks after cell injection, vs vehicle”, the “total flux (bioluminescence)” value is listed as “significant reduction of total flux”. Further, the tumor volume result (10 or 25 mg/kg PO, p=0.0079, maintained till endpoint) was “significant inhibition of tumor volume”.
